EC50 and IC50 data for 35 compounds are collected here from patent US8546389B2 (priority 2010, dated 2013).

Test [1] deals with genotype 1b (Con 1) subgenomic replicon cell line. The test is described as follows: HCV replicon assay, genotype 1b (Renilla luciferase). It counts as cell-based, HCV genotype 1b (Con 1). The following applies: Hepatitis C virus; genotype 1b replicon, 72 hours, luciferase; read-out: genotype 1b EC50 (range class). The method in brief:
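Subgenomic replicon cells expressing Renilla luciferase (1b Con1; 1a and 2a lines by the same method) seeded at 7000 cells/well (5000 for 2a) without G418, exposed to 3-fold compound dilutions for 72 h at 37 °C. Luciferase activity measured; EC50 by non-linear regression.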

For the next test, the target named is 1b (BK) NS5bΔ21 (Hepatitis C virus genotype 1b (isolate BK) (HCV), UniProt P26663). The test is described as follows: HCV polymerase inhibition assay, genotype 1b. It counts as biochemical, HCV genotype 1b (BK). The following applies: 1b (BK) NS5bΔ21, 33P-GTP incorporation; read-out: 1b polymerase IC50 (range class). The gist of the method:
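NS5bΔ21 (50 nM) in Tris-HCl pH 7.5 with Mg2+/Mn2+, DTT, BSA, 0.5% DMSO, poly(rC) template, GTP at Km and ^33P-GTP; 3-fold compound dilutions. GTP-started reactions stopped with EDTA after 1 h; incorporation read by DEAE filter scintillation counting. IC50 by non-linear regression; 3a enzyme run the same way.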

Sequence of 1b (BK) NS5bΔ21 (P26663 2420-2989): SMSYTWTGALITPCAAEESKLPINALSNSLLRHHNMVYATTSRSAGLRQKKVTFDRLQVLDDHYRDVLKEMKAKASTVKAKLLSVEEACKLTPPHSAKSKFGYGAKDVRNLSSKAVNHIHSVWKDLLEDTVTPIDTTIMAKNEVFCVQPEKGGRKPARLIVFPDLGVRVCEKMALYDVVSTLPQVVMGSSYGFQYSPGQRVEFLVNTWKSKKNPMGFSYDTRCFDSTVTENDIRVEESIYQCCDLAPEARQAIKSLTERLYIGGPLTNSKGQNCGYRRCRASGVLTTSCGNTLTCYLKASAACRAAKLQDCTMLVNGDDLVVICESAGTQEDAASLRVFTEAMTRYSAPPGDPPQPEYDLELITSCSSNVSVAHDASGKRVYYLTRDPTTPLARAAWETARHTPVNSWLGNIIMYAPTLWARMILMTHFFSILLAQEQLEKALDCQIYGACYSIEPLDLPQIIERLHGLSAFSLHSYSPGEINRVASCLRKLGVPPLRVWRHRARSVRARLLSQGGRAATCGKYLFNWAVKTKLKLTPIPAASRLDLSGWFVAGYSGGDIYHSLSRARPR

For `CCC(C)OC(=O)CCCN(c1cc2nn(-c3ccc(Br)cc3)c(C(=O)NC)c2cc1C1CC1)S(C)(=O)=O` (stereo not shown) [Compound 92, butan-2-yl 4-{[2-(4-bromophenyl)-5-cyclopropyl-3-(methylcarbamoyl)-2H-indazol-6-yl](methylsulfonyl)amino}butanoate], in test [1], the EC50 was under 990 nM. Further, on 1b (BK) NS5bΔ21, the 50% inhibitory concentration (IC50) was under 990 nM.
As to `CNC(=O)c1c2cc(C3CC3)c(N(CCCC(=O)Oc3ccccc3)S(C)(=O)=O)cc2nn1-c1ccc(Br)cc1` [Compound 93, phenyl 4-{[2-(4-bromophenyl)-5-cyclopropyl-3-(methylcarbamoyl)-2H-indazol-6-yl](methylsulfonyl)amino}butanoate], in test [1], the EC50 fell in the range of 1000 to 9990 nM. Further, the 50% inhibitory concentration (IC50) at 1b (BK) NS5bΔ21 was under 990 nM.
The like results for `CNC(=O)c1c2cc(C3CC3)c(N(CCCC(=O)OCOC(=O)C(C)(C)C)S(C)(=O)=O)cc2nn1-c1ccc(Br)cc1` [Compound 94, [(2,2-dimethylpropanoyl)oxy]methyl 4-{[2-(4-bromophenyl)-5-cyclopropyl-3-(methylcarbamoyl)-2H-indazol-6-yl](methylsulfonyl)amino}butanoate] were, in that order, 1000 to 9990 nM and under 990 nM.
The matching figures for `CNC(=O)c1c2cc(C3CC3)c(N(CCC(CO)CO)S(C)(=O)=O)cc2nn1-c1ccc(Br)cc1` [Compound 96, 2-(4-bromophenyl)-5-cyclopropyl-6-{[4-hydroxy-3-(hydroxymethyl)butyl] (methylsulfonyl)amino}-N-methyl-2H-indazole-3-carboxamide]: under 990 nM and under 990 nM.
The matching figures for `CNC(=O)c1c2cc(C3CC3)c(N(CCC3COC(=O)OC3)S(C)(=O)=O)cc2nn1-c1ccc(Br)cc1` [Compound 97, 2-(4-bromophenyl)-5-cyclopropyl-N-methyl-6-{(methylsulfonyl)[2-(2-oxo-1,3-dioxan-5-yl)-ethyl]amino}-2H-indazole-3-carboxamide]: 1000 to 9990 nM and under 990 nM.
As for `CNC(=O)c1c2cc(C3CC3)c(N(CCCS(C)(=O)=O)S(C)(=O)=O)cc2nn1-c1ccc(Br)cc1` [Compound 100, 2-(4-bromophenyl)-5-cyclopropyl-N-methyl-6-[methylsulfonyl(3-methylsulfonylpropyl)amino]-2H-indazole-3-carboxamide], the EC50 in test [1] is under 990 nM. In addition, the IC50 on 1b (BK) NS5bΔ21 is under 990 nM.
As for `CNC(=O)c1c2cc(C3CC3)c(N(CCC[S+](C)[O-])S(C)(=O)=O)cc2nn1-c1ccc(Br)cc1` (stereo not shown) [Compound 101, 2-(4-bromophenyl)-5-cyclopropyl-N-methyl-6-[3-methylsulfinylpropyl(methylsulfonyl)amino]-2H-indazole-3-carboxamide], in test [1], the EC50 is 1000 to 9990 nM. Further, the IC50 at 1b (BK) NS5bΔ21 was under 990 nM.
The like results for `CNC(=O)c1c2cc(C3CC3)c(N(CCCS(N)(=O)=O)S(C)(=O)=O)cc2nn1-c1ccc(Br)cc1` [Compound 102, 2-(4-Bromophenyl)-5-cyclopropyl-N-methyl-6-[methylsulfonyl(3-sulfamoylpropyl)amino]-2H-indazole-3-carboxamide] were, in that order, 1000 to 9990 nM and under 990 nM.
Regarding `CNC(=O)c1c2cc(C3CC3)c(N3CCN(C)S3(=O)=O)cc2nn1-c1ccc(Br)cc1` [Compound 104, 2-(4-bromophenyl)-5-cyclopropyl-N-methyl-6-(5-methyl-1,1-dioxido-1,2,5-thiadiazolidin-2-yl)-2H-indazole-3-carboxamide], in test [1], the concentration for a half-maximal effect (EC50) lay in the range of 1000 to 9990 nM. On 1b (BK) NS5bΔ21, the IC50 was 10000 to 50000 nM.
The like results for `CNC(=O)c1c2cc(C3CC3)c(N3CCCC3=O)cc2nn1-c1ccc(NCC(C)C)cc1` [Compound 105, 5-cyclopropyl-N-methyl-2-{4-[(2-methylpropyl)amino]phenyl}-6-(2-oxopyrrolidin-1-yl)-2H-indazole-3-carboxamide] were, in that order, 1000 to 9990 nM and 10000 to 50000 nM.
As to `CNC(=O)c1c2cc(C3CC3)c(N(CC(C)O)S(C)(=O)=O)cc2nn1-c1ccc(Br)cc1` (stereo not shown) [Compound 106, 2-(4-Bromophenyl)-5-cyclopropyl-6-[2-hydroxypropyl(methylsulfonyl)amino]-N-methyl-2H-indazole-3-carboxamide], the EC50 in test [1] was in the range of 1000 to 9990 nM. Besides, the IC50 at 1b (BK) NS5bΔ21 is 1000 to 9990 nM.
In the case of `CNC(=O)c1c2cc(C3CC3)c(N(C3CCNCC3)S(C)(=O)=O)cc2nn1-c1ccc(Br)cc1` [Compound 107, 2-(4-bromophenyl)-5-cyclopropyl-N-methyl-6-[methylsulfonyl(piperidin-4-yl)-amino]-2H-indazole-3-carboxamide], in test [1], the EC50 was in the range of 1000 to 9990 nM. For the same compound, the concentration for half-maximal inhibition (IC50) at 1b (BK) NS5bΔ21 was in the range of 1000 to 9990 nM.
Consider `CNC(=O)c1c2cc(C3CC3)c(N(C3CCN(S(C)(=O)=O)CC3)S(C)(=O)=O)cc2nn1-c1ccc(Br)cc1` [Compound 108, 2-(4-bromophenyl)-5-cyclopropyl-N-methyl-6-[methylsulfonyl-(1-methylsulfonyl(piperidin-4-yl))amino]-2H-indazole-3-carboxamide], for which the EC50 in test [1] was 1000 to 9990 nM. Moreover, on 1b (BK) NS5bΔ21, the half-inhibitory concentration (IC50) was under 990 nM.
For `CCN(c1cc2nn(-c3ccc(NCC(C)C)nc3)c(C(=O)NC)c2cc1C1CC1)S(C)(=O)=O` [Compound 110, 5-cyclopropyl-6-[ethyl(methylsulfonyl)amino]-2-[6-(isobutylamino)-3-pyridyl]-N-methyl-2H-indazole-3-carboxamide], in test [1], the EC50 was under 990 nM. In addition, on 1b (BK) NS5bΔ21, the IC50 is under 990 nM.
For the compound `CCCN(c1cc2nn(-c3ccc(Oc4ccc(F)cc4)cc3)c(C(=O)NC)c2cc1C1CC1)S(C)(=O)=O` [Compound 113], the EC50 in test [1] is under 990 nM. For the same compound, the 50% inhibitory concentration (IC50) on 1b (BK) NS5bΔ21 was under 990 nM.
Turning to `CNC(=O)c1c2cc(C3CC3)c(N(CCN3CCCCC3)S(C)(=O)=O)cc2nn1-c1ccc(Oc2ccc(F)cc2)cc1` [Compound 114], in test [1], the EC50 was in the range of 1000 to 9990 nM. Also, the IC50 at 1b (BK) NS5bΔ21 lay within 1000 to 9990 nM.
For `CNC(=O)c1c2cc(C3CC3)c(N(CCCOC(=O)c3ccccc3C(=O)O)S(C)(=O)=O)cc2nn1-c1ccc(Oc2ccc(F)cc2)cc1` [Compound 115], the 50% effective concentration (EC50) in test [1] was 1000 to 9990 nM. In addition, the IC50 on 1b (BK) NS5bΔ21 was under 990 nM.
With `CNC(=O)c1c2cc(C3CC3)c(N(CCCOC(C)=O)S(C)(=O)=O)cc2nn1-c1ccc(Nc2ccc(F)cc2)cc1` [Compound 116], the half-maximal effective concentration (EC50) in test [1] is under 990 nM. For the same compound, the IC50 on 1b (BK) NS5bΔ21 was under 990 nM.
Turning to `CNC(=O)c1c2cc(C3CC3)c(N(CCCOC(=O)c3cnccn3)S(C)(=O)=O)cc2nn1-c1ccc(Oc2ccc(F)cc2)cc1` [Compound 118], the EC50 in test [1] is under 990 nM. Also, the IC50 on 1b (BK) NS5bΔ21 is under 990 nM.
For the compound `CNC(=O)c1c2cc(C3CC3)c(N(CCCO)S(C)(=O)=O)cc2nn1-c1ccc(NCC(C)C)cc1` [Compound 122], the concentration giving a half-maximal response (EC50) in test [1] is under 990 nM. For the same compound, the concentration for half-maximal inhibition (IC50) on 1b (BK) NS5bΔ21 is 1000 to 9990 nM.
The like results for `CCN(c1cc2nn(-c3ccc(Nc4ccccc4F)cc3)c(C(=O)NC)c2cc1OC)S(C)(=O)=O` [Compound 123] were, in that order, under 990 nM and 1000 to 9990 nM.
The like results for `CCN(c1cc2nn(-c3ccc(NCC(C)C)cc3)c(C(=O)NC)c2cc1OC)S(C)(=O)=O` [Compound 124] were, in that order, 1000 to 9990 nM and 1000 to 9990 nM.
The like results for `CCN(c1cc2nn(-c3ccccc3)c(C(=O)NC)c2cc1OC)S(C)(=O)=O` [Compound 125] were, in that order, 1000 to 9990 nM and 10000 to 50000 nM.
With `CNC(=O)c1c2cc(OC)c(N(CCCO)S(C)(=O)=O)cc2nn1-c1ccc(Nc2ccccc2F)cc1` [Compound 126], the 50% effective concentration (EC50) in test [1] was in the range of 1000 to 9990 nM. At 1b (BK) NS5bΔ21, the IC50 fell in the range of 1000 to 9990 nM.
Turning to `CNC(=O)c1c2cc(C3CC3)c(N3CCCCC3=O)cc2nn1-c1ccc(Nc2ccc(F)cc2)cc1` [Compound 127], the EC50 in test [1] fell in the range of 1000 to 9990 nM. For the same compound, the IC50 at 1b (BK) NS5bΔ21 fell in the range of 10000 to 50000 nM.
Take `CNC(=O)c1c2cc(C3CC3)c(N3CCCS3(=O)=O)cc2nn1-c1ccc(Br)cc1` [Compound 128]: the EC50 in test [1] lay within 1000 to 9990 nM. For the same compound, the half-maximal inhibitory concentration (IC50) at 1b (BK) NS5bΔ21 was in the range of 1000 to 9990 nM.
`C=C(C)c1cc2c(C(=O)NC)n(-c3ccc(F)cc3)nc2cc1N(CC)S(C)(=O)=O` [Compound 129]: the half-maximal effective concentration (EC50) in test [1] was 1000 to 9990 nM. Further, the IC50 at 1b (BK) NS5bΔ21 was in the range of 10000 to 50000 nM.
The matching figures for `CCN(c1cc2nn(-c3ccc(F)cc3)c(C(=O)NC)c2cc1Br)S(C)(=O)=O` [Compound 132]: 10000 to 50000 nM and 1000 to 9990 nM.
The like results for `CNC(=O)c1c2cc(C3CC3)c(N(CCCNC(=O)CN)S(C)(=O)=O)cc2nn1-c1ccc(Br)cc1` [Compound 133] were, in that order, 1000 to 9990 nM and under 990 nM.
The like results for `CNC(=O)c1c2cc(C3CC3)c(N(CCCN(C)S(C)(=O)=O)S(C)(=O)=O)cc2nn1-c1ccc(Br)cc1` [Compound 135] were, in that order, under 990 nM and under 990 nM.
With `CCN(c1cc2nn(-c3ccc(F)cc3)c(C(=O)NC)c2cc1C1CC1)S(C)(=O)=O` [Compound 138], the EC50 in test [1] was under 990 nM. Further, the concentration for half-maximal inhibition (IC50) at 1b (BK) NS5bΔ21 is under 990 nM.
As for `CCN(c1cc2nn(-c3ccc(F)cc3)c(C(=O)NC)c2cc1C)S(C)(=O)=O` [Compound 139], in test [1], the EC50 lay within 10000 to 50000 nM. Further, the 50% inhibitory concentration (IC50) on 1b (BK) NS5bΔ21 was 1000 to 9990 nM.
The like results for `CNC(=O)c1c2cc(C3CC3)c(N(Cc3ccncc3)S(C)(=O)=O)cc2nn1-c1ccc(Br)cc1` [Compound 140] were, in that order, under 990 nM and under 990 nM.
The matching figures for `CCOC(=O)CN(c1cc2nn(-c3ccc(Br)cc3)c(C(=O)NC)c2cc1C1CC1)S(C)(=O)=O` [Compound 141]: 10000 to 50000 nM and 1000 to 9990 nM.
The like results for `CCN(c1cc2nn(-c3ccc(F)cc3)c(C(=O)NC)c2cc1C1=CCOCC1)S(C)(=O)=O` [Compound 142] were, in that order, 1000 to 9990 nM and 10000 to 50000 nM.
